Results reported in PubChem BioAssay (NCI).
Several values for one entry are separate records, joined by “and”; a condition that tells them apart may be missing. Equal entries are not always repeated.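 Cells were grown in 96-well plates and exposed to each compound for 48 hours at five concentrations; endpoints were interpolated linearly between bracketing concentrations, or set to the highest concentration if not reached. The concentration for 50% growth inhibition is given as GI50. TGI: total growth inhibition.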

Assays:
Assay in all cases: NCI tumour cell line growth inhibition, 48 h
[1] = tested on: 786-0 renal
[2] = tested on: A549 NSCLC
[3] = tested on: ACHN renal
[4] = tested on: BT-549 breast
[5] = tested on: CAKI-1 renal
[6] = tested on: CCRF-CEM leukemia
[7] = tested on: COLO 205 colon
[8] = tested on: DLD-1 colon
[9] = tested on: DMS 114 small cell lung
[10] = tested on: DMS 273 small cell lung
[11] = tested on: DU-145 prostate
[12] = tested on: EKVX NSCLC
[13] = tested on: HCC-2998 colon
[14] = tested on: HCT-116 colon
[15] = tested on: HCT-15 colon
[16] = tested on: HOP-18 NSCLC
[17] = tested on: HOP-62 NSCLC
[18] = tested on: HOP-92 NSCLC
[19] = tested on: HS 578T breast
[20] = tested on: HT29 colon
[21] = tested on: IGROV1 ovarian
[22] = tested on: K-562 leukemia
[23] = tested on: KM12 colon
[24] = tested on: KM20L2 colon
[25] = tested on: LOX IMVI melanoma
[26] = tested on: M14 melanoma
[27] = tested on: M19-MEL melanoma
[28] = tested on: MALME-3M melanoma
[29] = tested on: MCF7 breast
[30] = tested on: MDA-MB-231 breast
[31] = tested on: MDA-MB-435
[32] = tested on: MOLT-4 leukemia
[33] = tested on: NCI-H226 lung
[34] = tested on: NCI-H23 lung
[35] = tested on: NCI-H460 lung
[36] = tested on: NCI-H522 lung
[37] = tested on: NCI/ADR-RES ovarian
[38] = tested on: OVCAR-3 ovarian
[39] = tested on: OVCAR-4 ovarian
[40] = tested on: OVCAR-5 ovarian
[41] = tested on: OVCAR-8 ovarian
[42] = tested on: P388 leukemia
[43] = tested on: P388/ADR leukemia
[44] = tested on: PC-3 prostate
[45] = tested on: RPMI-8226 leukemia
[46] = tested on: RXF 393 renal
[47] = tested on: SF-268 CNS
[48] = tested on: SF-295 CNS
[49] = tested on: SF-539 CNS
[50] = tested on: SK-MEL-2 melanoma
[51] = tested on: SK-MEL-28 melanoma
[52] = tested on: SK-MEL-5 melanoma
[53] = tested on: SK-OV-3 ovarian
[54] = tested on: SN12C renal
[55] = tested on: SNB-19 CNS
[56] = tested on: SNB-75 CNS
[57] = tested on: SNB-78 CNS
[58] = tested on: SR leukemia
[59] = tested on: SW-620 colon
[60] = tested on: T-47D breast
[61] = tested on: TK-10 renal
[62] = tested on: U251 CNS
[63] = tested on: UACC-257 melanoma
[64] = tested on: UACC-62 melanoma
[65] = tested on: UO-31 renal
[66] = tested on: XF 498 CNS

In the case of `O=C1C=C2C(=CCOC2O)O1` (stereo not drawn), the GI50 [1] was 2.67 µM, the TGI [1] was 7.06 µM and the GI50 [2] was 5.51 µM. For the same molecule, the TGI [2] was 21.2 µM and 22.2 µM, the GI50 [3] was 1.28 µM and the TGI [3] was 3.34 µM. The GI50 [4] was 3.28 µM, the TGI [4] was 9.67 µM and the GI50 [5] was 1.06 µM and 1 µM. The TGI [5] was 2.3 µM and 2.5 µM, the GI50 [6] was 1.11 µM and the TGI [6] was 0.709 µM and 6.03 µM. For the same molecule, the GI50 [7] was 0.395 µM and 0.655 µM, the TGI [7] was 1.04 µM and 1.97 µM and the TGI [8] was 2.07 µM. For the same molecule, the TGI [9] was 3.29 µM, the TGI [10] was 2.41 µM and the GI50 [11] was 2.07 µM. For the same molecule, the TGI [11] was 6.48 µM, the GI50 [12] was 1.76 µM and 10.6 µM and the TGI [12] was 4.64 µM and 40.4 µM. The GI50 [13] was 11.4 µM, the GI50 [14] was 1.14 µM and the TGI [14] was 0.544 µM and 2.4 µM. The GI50 [15] was 1.25 µM, the TGI [15] was 1.98 µM and 3.23 µM and the TGI [16] was 4.77 µM. For the same molecule, the TGI [17] was 20.5 µM and 23.4 µM, the GI50 [18] was 2.64 µM and the TGI [18] was 6.11 µM and 7.84 µM. The GI50 [19] was 2.14 µM, the TGI [19] was 9.84 µM and the GI50 [20] was 6.05 µM and 1.16 µM. The TGI [20] was 22.7 µM and 3.37 µM, the GI50 [21] was 2.59 µM and the TGI [21] was 9.78 µM and 6.24 µM. The GI50 [22] was 0.905 µM and 1.79 µM, the TGI [22] was 3.22 µM and 10.7 µM and the GI50 [23] was 0.783 µM and 3.08 µM. The TGI [23] was 1.85 µM and 11.2 µM, the TGI [24] was 12.1 µM and the GI50 [25] was 0.227 µM and 1.57 µM. The TGI [25] was 0.665 µM and 3.33 µM, the GI50 [26] was 1.59 µM and the TGI [26] was 3.08 µM. For the same molecule, the TGI [27] was 8.14 µM, the TGI [28] was 2.04 µM and the TGI [29] was 17.3 µM and 13.7 µM. It also gave a GI50 [30] of 1.96 µM, a TGI [30] of 5.07 µM and a GI50 [31] of 1.64 µM. The TGI [31] was 3.86 µM, the GI50 [32] was 3.66 µM and the TGI [32] was 1.61 µM and 10.7 µM. The TGI [33] was 6.92 µM, the GI50 [34] was 2.73 µM and the TGI [34] was 4.14 µM and 10.6 µM. The GI50 [35] was 3.86 µM, the TGI [35] was 2.41 µM and 18.3 µM and the GI50 [36] was 1.12 µM. For the same molecule, the TGI [36] was 1.07 µM and 2.52 µM, the GI50 [37] was 2.76 µM and the TGI [37] was 4.35 µM and 12.5 µM. For the same molecule, the GI50 [38] was 1.7 µM and 0.664 µM, the TGI [38] was 4.06 µM and 2.19 µM and the TGI [39] was 12.5 µM. For the same molecule, the GI50 [40] was 2.97 µM, the TGI [40] was 15.8 µM and 7.74 µM and the GI50 [41] was 0.734 µM and 2.57 µM. The TGI [41] was 5.07 µM and 9.22 µM, the TGI [42] was 0.439 µM and the TGI [43] was 0.569 µM. For the same molecule, the GI50 [44] was 4.69 µM, the TGI [44] was 17.1 µM and the GI50 [45] was 3.6 µM. For the same molecule, the GI50 [46] was 0.213 µM and 1.1 µM, the TGI [46] was 0.761 µM and 3 µM and the GI50 [47] was 1.1 µM and 3.66 µM. For the same molecule, the TGI [47] was 8.18 µM and 13.9 µM, the GI50 [48] was 3.34 µM and 6.25 µM and the TGI [48] was 8.88 µM and 22.4 µM. The GI50 [49] was 0.941 µM and 1.77 µM, the TGI [49] was 2.13 µM and 4.57 µM and the TGI [50] was 13.6 µM. For the same molecule, the GI50 [51] was 1.28 µM and 2.37 µM, the TGI [51] was 3.38 µM and 5.83 µM and the GI50 [52] was 2.43 µM. The TGI [52] was 3.17 µM and 9.05 µM, the GI50 [53] was 11.5 µM and 12.2 µM and the TGI [53] was 20.6 µM and 24.6 µM. For the same molecule, the GI50 [54] was 2.59 µM, the TGI [54] was 1.86 µM and 10 µM and the GI50 [55] was 3.23 µM and 12.8 µM. For the same molecule, the TGI [55] was 9.77 µM and 27.8 µM, the GI50 [56] was 2.82 µM and the TGI [56] was 10.1 µM and 13.2 µM. It also gave a TGI [57] of 11.6 µM, a GI50 [58] of 2.11 µM and a TGI [58] of 8.51 µM. For the same molecule, the GI50 [59] was 0.395 µM and 0.443 µM, the TGI [59] was 1.23 µM and 1.88 µM and the GI50 [60] was 1.4 µM. For the same molecule, the TGI [60] was 4.64 µM, the GI50 [61] was 0.259 µM and the TGI [61] was 0.652 µM. For the same molecule, the GI50 [62] was 6.92 µM and 2.65 µM, the TGI [62] was 14.6 µM and 10 µM and the TGI [63] was 3.85 µM. The GI50 [64] was 1.55 µM, the TGI [64] was 1.64 µM and 3.2 µM and the GI50 [65] was 3.98 µM and 1.24 µM. The TGI [65] was 8.77 µM and 6.43 µM and the TGI [66] was 0.419 µM.
